Results published in patent publication US20030232790A1, “Dihydro-2h-napthalene-1-one inhibitors of ras farnesyl transferase” (priority 2002, published 2003).
Like-named read-outs stand apart in the source and are kept apart here.

Key:
[1] = biological target: T1, protein:farnesyl transferase (PFT), SF9 affinity purified rat FPT (Rattus norvegicus, UniProt Q02293+Q04631); assay: PFT (FPT) inhibitory activity, radiolabeled farnesyl pyrophosphate / biotinyl peptide streptavidin bead assay; format: biochemical
T1 construct: made in house
Description: The pharmaceutical utility of compounds of this invention was established by the following standard assay which measures inhibition of the enzyme protein:farnesyl transferase (PFT), also referred to as farnesyl protein transferase (FPT).
The PFT (or FPT) inhibitory activity of compounds of the present invention was assayed in HEPES buffer (pH 7.4) containing 5 mM potassium phosphate and 20 μM ZnCl2. The solution also contained 5 mM DTT (dithiothreitol), 5 mM MgCl2, and 0.1% PEG 8000. Assays were performed in 96 well plates (Wallec) and employed solutions composed of varying concentrations of a compound of the present invention in 10% DMSO (dimethylsulfoxide). Upon addition of both substrates, radiolabeled farnesyl pyrophosphate ([1^3H], specific activity 15-30 Ci/mmol, final concentration 134 nM) and (biotinyl)-Ahe-Thr-Lys-Cys-Val-Ile-Met ([3aS[3a alpha, 4 beta, 6a alpha]-hexahydro-2-oxo-1H-thieno[3,4-d]imidazole-5-pentanoic acid]-[7-aminoheptanoic acid]-Thr-Lys-Cys-Val-Ile-Met) (Ahe is 7-aminoheptanoic acid, Thr is threonine, Lys is lysine, Cys is cysteine, Val is valine, Ile is isoleucine, and Met is methionine) (final concentration 0.2 μM), the enzyme reaction was started by addition of SF9 affinity purified rat FPT. After incubation at 30° C. for 30 minutes, the reaction was terminated by diluting the mixture 2.5-fold with a stop buffer containing 1.5 M magnesium acetate, 0.2 M H3PO4, 0.5% BSA (bovine serum albumin), and strepavidin beads (Amersham) at a concentration of 1.3 mg/mL. After allowing the plate to settle for 30 minutes at room temperature, radioactivity was quantitated on a microBeta counter (Model 1450, Wallec). The assay was also carried out without 5 mM potassium phosphate.

[2] = system: human lung carcinoma with K-ras mutation and p53 deletion; conditions: nude mice; cited from earlier work
[3] = system: EJ-1 human bladder carcinoma, HT18O human fibrosarcoma, and human colon carcinoma xenografts; conditions: 100 mg/kg; xenografts in nude mice; cited from earlier work
[4] = system: mammary and salivary carcinomas; conditions: daily administration; ras transgenic mice; cited from earlier work
[5] = HEPES buffer pH 7.4 with 5 mM potassium phosphate, read-out: IC50 (μm) Hepes ± 5 mM Phosphate
[6] = HEPES buffer pH 7.4 without 5 mM potassium phosphate, read-out: IC50 (μm) Hepes

CCCc1c(OCCc2cncn2Cc2ccccc2)ccc2c1CCCC2=O [Compound 2, 6-[2-(3-benzyl-3H-imidazol-4-yl)-ethoxy]-5-propyl-3,4-dihydro-2H-naphthalen-1-one]
IC50 [1, 5]: 870 nM | IC50 [1, 6]: 1390 nM

CSCC[C@H](NC(=O)c1ccc(NC[C@@H](N)CS)cc1-c1ccccc1)C(=O)O [FTI276]
tumor growth [2]: selectively block tumor growth

N#Cc1ccc(Cn2cncc2CCOc2ccc3c(c2CCc2ccccc2)CCCC3=O)cc1 [Compound 4, 4-{[5-(2-{[5-oxo-1-(2-phenylethyl)-5,6,7,8-tetrahydro-2-naphthalenyl]oxy}ethyl)-1H-imidazol-1-yl]methyl}benzonitrile]
IC50 [1, 6]: 0.3 nM

O=C1CCCc2c1ccc(OCCc1cncn1Cc1ccccc1)c2CCc1ccccc1 [Compound 3, 6-[2-(3-benzyl-3H-imidazol-4-yl)-ethoxy]-5-phenethyl-3,4-dihydro-2H-naphthalen-1-one]
IC50 [1, 5]: 52 nM | IC50 [1, 6]: 73 nM

N#Cc1ccc(Cn2cncc2CCOc2ccc3c(c2CS(=O)(=O)c2ccccn2)CCCC3=O)cc1 [Compound 28, 4-({5-[2-({5-oxo-1-[(2-pyridinylsulfonyl)methyl]-5,6,7,8-tetrahydro-2-naphthalenyl}oxy)ethyl]-1H-imidazol-1-yl}methyl)benzonitrile]
IC50 [1, 6]: 0.3 nM

COC(=O)[C@H](CCSC)NC(=O)[C@H](/C=C\[C@@H](/C=C/[C@@H](N)CS)C(C)C)Cc1ccccc1 [Compound B1086]
tumor growth inhibition [3]: inhibit tumor growth

COc1ccc(Cn2cncc2CCOc2ccc3c(c2)CCCC3=O)cc1C [Compound 12, 6-{2-[3-(4-methoxy-3-methyl-benzyl)-3H-imidazol-4-yl]-ethoxy}-3,4-dihydro-2H-naphthalen-1-one]
IC50 [1, 5]: 22 nM | IC50 [1, 6]: 24 nM

CC[C@H](C)[C@@H](CO[C@@H](Cc1ccccc1)C(=O)N[C@@H](CCS(C)(=O)=O)C(=O)OC(C)C)NC[C@@H](N)CS [L-744,832]
tumor regression [4]: caused tumor regression

CC(C)S(=O)(=O)Cc1c(OCCc2cncn2Cc2ccc(C#N)cc2)ccc2c1CCCC2=O [Compound 29, 4-({5-[2-({1-[(isopropylsulfonyl)methyl]-5-oxo-5,6,7,8-tetrahydro-2-naphthalenyl}oxy)ethyl]-1H-imidazol-1-yl}methyl)benzonitrile]
IC50 [1, 6]: 0.5 nM
